Measured values reported in patent publication US20250281609A1, “COMPOSITION FOR TREATING OR PREVENTING CANCER” (ORGANOIDSCIENCES LTD., priority 2021, published 2025).

Experiments:
[1] = tested on: colorectal cancer organoids; test: Colorectal cancer organoid viability (growth rate and death rate); assay type: cell-based, human; conditions: for increase in efficacy (cancer organoid death) of the combination of the HVEM inhibitor with the HSP inhibitor compared to HVEM inhibitor alone: 72 hours after treatment, FIG. 6
Procedure: To evaluate whether the combination of HVEM inhibitor and HSP inhibitor exerts a synergistic effect as a cancer preventive or therapeutic agent, we conducted the following experiment. Specifically, colorectal cancer organoids were treated with either an HVEM inhibitor alone, an HSP inhibitor alone, or a combination of both. The anticancer efficacy of the combination treatment was assessed by measuring cancer organoid viability.
For HVEM inhibitor, anti-HVEM antibodies (CW10, Santa Cruz, #sc-21718; R&D Systems, #MAB356-SP) were used at 10 nM. For inhibitor of HVEM ligands, anti-BTLA antibodies (Mybiosource, #MBS633646; Adipogen, #AG-20B-0049) were used at 10 nM. For HSP inhibitors, Luminespib (AUY922, Selleck, #s1069; HSP90-targeting), Ganetespib (STA-9090, Selleck, #s1159; HSP90-targeting), Tanespimycin (17-AAG, Selleck, #s1141; HSP90-targeting), BIIB021 (Selleck, #s1175; HSP90-targeting), Onalespib (AT13387, Selleck, #s1163; HSP90-targeting), HSP990 (#s7097; Selleck, HSP90-targeting), KNK437 (#s7750; Selleck, HSP40-targeting), and VER-155008 (Selleck, #s7751; HSP70-targeting) were used.
The viability of cancer organoids was assessed through growth rate and death rate of cancer organoids as follows.

[2] = tested on: colorectal cancer organoids xenograft tumors; test: Mouse tumor xenograft model using colorectal cancer organoids, humanized with PBMCs; assay type: in vivo; conditions: harvested tumor tissues, FIG. 10
Procedure: Specifically, monotherapy with an HVEM inhibitor, monotherapy with a BTLA inhibitor, monotherapy with an HSP inhibitor, combination therapy with an HVEM inhibitor and an HSP inhibitor, combination therapy with a BTLA inhibitor and an HSP inhibitor, or combination therapy with an HVEM inhibitor, a BTLA inhibitor, and an HSP inhibitor was administered to a mouse tumor xenograft model using colorectal cancer organoids. In addition, since the effect of inhibitors of HVEM and its ligand requires the presence of immune cells, PBMCs were introduced into the mice bearing the xenograft tumors to generate humanized mice. The inhibitors were administered a total of four times on days 15, 18, 21, and 24 after tumor transplantation.
As an HVEM (Herpesvirus entry mediator) inhibitor, an anti-HVEM antibody (CW10, Santa Cruz, #sc-21718) was used at a dose of 1 mg/kg; as an inhibitor of the HVEM ligand, an anti-BTLA antibody (Mybiosource, #MBS633646) was used at a dose of 1 mg/kg; and as an HSP (heat shock protein) inhibitor, Luminespib (AUY922, Selleck, #s1069; targeting HSP90) was used at a dose of 0.5 mg/kg.
From day 7 after tumor implantation, tumor size was measured three times per week. After completion of the experiment, the shape of the harvested tumors was analyzed, and tumor weight was measured. […]

[3] = colorectal cancer organoids, increasing concentrations

SMILES | increase in efficacy (cancer organoid death) of the combination of the HVEM inhibitor with the HSP inhibitor compared to HVEM inhibitor alone ([1]; colorectal cancer organoids) | increase in cancer organoid death rate, high concentration vs low concentration ([1]; 100 nM or higher compared to 1 to 5 nM) | cancer organoid death rate [1, 3] | growth rate of cancer organoids over time [1, 3] | hCD8+ T cells infiltrated into the tumor tissue (IHC) [2]
C=CCNC1=C2C[C@@H](C)C[C@H](OC)[C@H](O)[C@@H](C)/C=C(\C)[C@H](OC(N)=O)[C@@H](OC)/C=C\C=C(/C)C(=O)NC(=CC1=O)C2=O [17-AAG, Tanespimycin] | approximately 2.9 fold | – | – | – | –
CCNC(=O)c1noc(-c2cc(C(C)C)c(O)cc2O)c1-c1ccc(CN2CCOCC2)cc1 [AUY922, Luminespib] | ≥ 3.4 fold | > 3.6 fold | increased cancer organoids death rate | reduced growth over time | barely detected
CC(C)c1cc(-c2n[nH]c(=O)n2-c2ccc3c(ccn3C)c2)c(O)cc1O [STA-9090, Ganetespib] | approximately 2.9 fold | – | – | – | –
